This note sets out measurements from BindingDB's records for doi:10.1016/j.bmc.2017.03.009 (Wuhan Institute of Technology, 2017).

SMILES strings stand for the structures. Bounds are passed on as bounds.

In general, EC50 refers to the midpoint of the concentration-response curve.

Test [1] is described as follows: Inhibition of HIV1 RES056 reverse transcriptase K103N/Y181C double mutant infected in human MT4 cells assessed as protection against virus-induced cytopathic effect measured at 5 days post infection by MTT assay.
A short description of test [2]: Inhibition of HIV-1 reverse transcriptase E138K mutant infected in human MT4 cells assessed as protection against virus-induced cytopathic effect measured at 5 days post infection by MTT assay.

For `N#Cc1ccc(Nc2nccc(OCc3ccc(Br)cc3)n2)cc1`, the EC50 in test [1] and in test [2] was greater than 16 µM throughout.
As to `N#Cc1ccc(Nc2nccc(OCc3cccc(C(F)(F)F)c3)n2)cc1`, the EC50 in test [1] and in test [2] was greater than 118 µM throughout.
Consider `COc1cc(COc2ccnc(Nc3ccc(C#N)cc3)n2)cc(OC)c1`, for which the EC50 was greater than 44 µM in test [1] and 0.23 µM in test [2].
On to `N#Cc1ccc(Nc2nccc(OCc3ccc(Br)cc3F)n2)cc1`, for which the EC50 was greater than 141 µM in test [1] and 35.8 µM in test [2].
The like results for `N#Cc1ccc(Nc2nccc(OCc3ccccc3C#N)n2)cc1` were, in that order, greater than 113 µM and greater than 113 µM.
In the same order, the values of `N#Cc1ccc(Nc2nccc(OCc3cccc(C#N)c3)n2)cc1` are greater than 4.1 µM and greater than 4.1 µM.
The like results for `N#Cc1ccc(Nc2nccc(OCc3ccccc3)n2)cc1` were, in that order, greater than 13 µM and 1.8 µM.
With `N#Cc1ccc(Nc2nccc(OCc3cccc4ccccc34)n2)cc1`, the EC50 in test [1] was greater than 7.7 µM; in test [2], 0.3 µM.
The like results for `N#Cc1ccc(Nc2nccc(OCc3ccc4ccccc4c3)n2)cc1` were, in that order, greater than 212 µM and 10 µM.
The like results for `N#Cc1ccc(Nc2nccc(NCc3ccccn3)n2)cc1` were, in that order, greater than 8.5 µM and 0.24 µM.
The like results for `Cc1cc(C)nc(Sc2ccnc(Nc3ccc(C#N)cc3)n2)n1` were, in that order, greater than 224 µM and greater than 224 µM.
As for `N#Cc1ccc(Nc2nccc(OCc3ccccc3Cl)n2)cc1`, the EC50 in test [1] and in test [2] was greater than 146 µM in each case.
In the case of `N#Cc1ccc(Nc2nccc(OCc3cccc(Cl)c3)n2)cc1`, the EC50 in test [1] and in test [2] was greater than 153 µM each time.
Take `N#Cc1ccc(Nc2nccc(OCc3ccccc3Br)n2)cc1`: the EC50 in test [1] and in test [2] was greater than 130 µM throughout.
Regarding `N#Cc1ccc(Nc2nccc(OCc3cccc(Br)c3)n2)cc1`, the EC50 was greater than 221 µM in test [1] and 5 µM in test [2].
As for `N#Cc1ccc(Nc2nccc(OCc3ccccc3F)n2)cc1`, the EC50 is greater than 151 µM in test [1] and 0.3 µM in test [2].
The like results for `N#Cc1ccc(Nc2nccc(OCc3ccc(F)cc3)n2)cc1` were, in that order, greater than 81 µM and greater than 81 µM.
As for `Cc1ccccc1COc1ccnc(Nc2ccc(C#N)cc2)n1`, the EC50 in test [1] and in test [2] was greater than 12 µM each time.
Turning to `Cc1cccc(COc2ccnc(Nc3ccc(C#N)cc3)n2)c1`, the figures for the EC50 in test [1] and in test [2] were greater than 30 µM and 1.18 µM, respectively.
Regarding `COc1ccccc1COc1ccnc(Nc2ccc(C#N)cc2)n1`, the values for the EC50 in test [1] and in test [2] were greater than 8.9 µM and 2.1 µM, respectively.
Take `COc1cccc(COc2ccnc(Nc3ccc(C#N)cc3)n2)c1`: the values for the EC50 in test [1] and in test [2] were greater than 118 µM and 1.1 µM, respectively.
Consider `N#Cc1ccc(Nc2nccc(OCc3ccccc3C(F)(F)F)n2)cc1`, for which the EC50 in test [1] and in test [2] was greater than 173 µM in each case.
Take `N#Cc1ccc(Nc2nccc(OCc3cc(F)ccc3Br)n2)cc1`: the EC50 in test [1] and in test [2] was greater than 190 µM throughout.
Regarding `N#Cc1ccc(COc2ccnc(Nc3ccc(C#N)cc3)n2)cc1`, the EC50 in test [1] and in test [2] was greater than 209 µM in each case.
For `CN(C)c1ccnc(Nc2ccc(C#N)cc2)n1`, the EC50 in test [1] and in test [2] was greater than 34 µM throughout.
As for `N#Cc1ccc(Nc2nccc(OCc3cccc(F)c3)n2)cc1`, the EC50 in test [1] is greater than 105 µM; in test [2] it was 1.88 µM.
`Cc1ccc(COc2ccnc(Nc3ccc(C#N)cc3)n2)cc1`: the EC50 in test [1] was greater than 81 µM; in test [2] it was 7.2 µM.
The like results for `COc1ccc(COc2ccnc(Nc3ccc(C#N)cc3)n2)cc1` were, in that order, greater than 102 µM and greater than 102 µM.
For `N#Cc1ccc(Nc2nccc(OCc3cccnc3)n2)cc1`, the EC50 in test [1] and in test [2] was greater than 6.4 µM throughout.
Regarding `N#Cc1ccc(Nc2nccc(OCc3ccc(Cl)cc3)n2)cc1`, the EC50 in test [1] and in test [2] was greater than 156 µM throughout.
